Reference: patent publication US9012651B2, “TRPV3 modulators” (AbbVie Inc., priority 2011, dated 2015)

Each molecule was assayed against human TRPV3 receptors (Homo sapiens (Human), UniProt Q8NET8) (assay: Calcium flux assay (FLIPR TETRA), inhibition of the 2-APB response). Conditions: recombinant HEK293 cells stably expressing TRPV3, Calcium-4 dye, 2-APB at its EC80.
Format: cell-based
Method: (i) In Vitro Methods-Calcium Flux Assays:
Experiments were conducted using the FLIPR^TETRA®. On the day prior to the experiment, recombinant HEK293 cells that stably express human and mouse TRPV3 were removed from tissue culture flasks and plated in growth medium at 20,000 cells/well into black-walled clear-bottom 384-well Biocoat™ poly-D-lysine assay plates (BD Biosciences, Bedford, Mass.) using a Multidrop® dispenser (ThermoScientific, Waltham, Mass.). […] Cells were incubated for 90-120 minutes in the dark. Compounds were dissolved in DMSO to prepare a 10 mM stock solution. The intensity of the fluorescence was captured and digitally transferred to an interfaced PC. The peak increase in fluorescence over baseline (relative fluorescence units) was calculated and expressed as the percentage of the maximal 2-APB (2-aminoethoxyldiphenyl borate) response (in the absence of compound).

Sequence of human TRPV3 receptors (Q8NET8 whole entry): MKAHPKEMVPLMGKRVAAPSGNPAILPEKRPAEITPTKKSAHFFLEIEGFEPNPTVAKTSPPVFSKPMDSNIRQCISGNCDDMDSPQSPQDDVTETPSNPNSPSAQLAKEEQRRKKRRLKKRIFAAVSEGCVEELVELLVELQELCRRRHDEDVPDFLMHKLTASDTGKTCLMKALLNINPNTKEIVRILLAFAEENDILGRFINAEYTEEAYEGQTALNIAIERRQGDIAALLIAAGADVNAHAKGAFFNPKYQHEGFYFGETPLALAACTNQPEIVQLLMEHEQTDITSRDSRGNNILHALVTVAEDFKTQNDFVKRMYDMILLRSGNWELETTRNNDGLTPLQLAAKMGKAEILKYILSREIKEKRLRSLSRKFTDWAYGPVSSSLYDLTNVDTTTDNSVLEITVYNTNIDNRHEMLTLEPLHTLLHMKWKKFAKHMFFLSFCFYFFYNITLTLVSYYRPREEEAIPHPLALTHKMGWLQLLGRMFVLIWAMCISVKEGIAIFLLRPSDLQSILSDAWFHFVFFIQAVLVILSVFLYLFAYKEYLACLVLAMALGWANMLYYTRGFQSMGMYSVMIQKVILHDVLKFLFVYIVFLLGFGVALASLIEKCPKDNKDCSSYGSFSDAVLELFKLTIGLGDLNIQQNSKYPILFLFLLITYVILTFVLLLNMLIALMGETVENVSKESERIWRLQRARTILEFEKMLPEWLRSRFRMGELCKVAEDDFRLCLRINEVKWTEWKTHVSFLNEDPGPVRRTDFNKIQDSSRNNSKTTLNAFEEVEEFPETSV

IC50 [nM]	Molecule
6430	CC(C)(C)[C@H](CO)NCc1ccnc(-c2ccc(C(F)(F)F)cc2)n1 [Example 147, (2R)-3,3-dimethyl-2-[({2-[4-(trifluoromethyl)phenyl]pyrimidin-4-yl}methyl)amino]butan-1-ol]
480	CC(c1ccc(F)cc1)c1ccc(F)c(CN[C@@H](CO)C(C)C)n1 (stereo partly drawn) [Example 128, (2R)-2-[({3-fluoro-6-[1-(4-fluorophenyl)ethyl]pyridin-2-yl}methyl)amino]-3-methylbutan-1-ol]
11000	OCC1(NCc2ccnc(-c3ccc(C(F)(F)F)cc3)n2)CCCCC1 [Example 134, {1-[({2-[4-(trifluoromethyl)phenyl]pyrimidin-4-yl}methyl)amino]cyclohexyl}methanol]
740	CC(C)[C@H](CO)NCc1nc(C2=CCCCC2)ccc1F [Example 126, (2R)-2-({[6-(cyclohex-1-en-1-yl)-3-fluoropyridin-2-yl]methyl}amino)-3-methylbutan-1-ol]
350	CC(C)[C@H](CO)NCc1nc(C2CCc3ccccc3C2)ccc1F (stereo partly drawn) [Example 217, (2R)-2-({[3-fluoro-6-(1,2,3,4-tetrahydronaphthalen-2-yl)pyridin-2-yl]methyl}amino)-3-methylbutan-1-ol]
520	CC(C)[C@H](CO)NCc1cccc(C#Cc2ccc(Cl)cc2)n1 [Example 286, (2R)-2-[({6-[(4-chlorophenyl)ethynyl]pyridin-2-yl}methyl)amino]-3-methylbutan-1-ol]
130	CC(C)[C@H](CO)NCc1nc(C#Cc2ccccc2)ccc1F [Example 289, (2R)-2-({[3-fluoro-6-(phenylethynyl)pyridin-2-yl]methyl}amino)-3-methylbutan-1-ol]
3050	CC[C@H](CO)NCc1ccnc(-c2ccc(C(F)(F)F)cc2)n1 [Example 138, (2R)-2-[({2-[4-(trifluoromethyl)phenyl]pyrimidin-4-yl}methyl)amino]butan-1-ol]
310	CC(C)[C@H](CO)NCc1nc(C2CCC(C(F)(F)F)CC2)ccc1F (stereo partly drawn) [Example 216, (2R)-2-[({3-fluoro-6-[4-(trifluoromethyl)cyclohexyl]pyridin-2-yl}methyl)amino]-3-methylbutan-1-ol]
790	CC(C)[C@H](CO)NCc1nc(C2CCC(C(C)(C)C)CC2)ccc1F (stereo partly drawn) [Example 213, (2R)-2-({[6-(4-tert-butylcyclohexyl)-3-fluoropyridin-2-yl]methyl}amino)-3-methylbutan-1-ol]
390	CC(C)[C@H](CO)NCc1nc(-c2ccc(F)c(C(F)(F)F)c2)ccc1F [Example 281, (2R)-2-[({3-fluoro-6-[4-fluoro-3-(trifluoromethyl)phenyl]pyridin-2-yl}methyl)amino]-3-methylbutan-1-ol]
> 20000	OCC[C@@H](NCc1ccnc(-c2ccc(C(F)(F)F)cc2)n1)c1ccccc1 [Example 162, (3R)-3-phenyl-3-[({2-[4-(trifluoromethyl)phenyl]pyrimidin-4-yl}methyl)amino]propan-1-ol]
17600	OCC1(CNCc2ccnc(-c3ccc(C(F)(F)F)cc3)n2)CCCCC1 [Example 159, (1-{[({2-[4-(trifluoromethyl)phenyl]pyrimidin-4-yl}methyl)amino]methyl}cyclohexyl)methanol]
> 20000	CC[C@H](CO)NCc1ccnc(-c2ccc(C(F)(F)F)nc2)n1 [Example 186, (2R)-2-[({2-[6-(trifluoromethyl)pyridin-3-yl]pyrimidin-4-yl}methyl)amino]butan-1-ol]
290	CC(C)[C@H](CO)NCc1nc(-c2ccc(C(F)(F)F)c(Cl)c2)ccc1F [Example 47, (2R)-2-[({6-[3-chloro-4-(trifluoromethyl)phenyl]-3-fluoropyridin-2-yl}methyl)amino]-3-methylbutan-1-ol]
420	CC(C)[C@H](CO)NCc1nc(N2CCC(C(F)(F)F)C2)ccc1F (stereo partly drawn) [Example 67, (2R)-2-[({3-fluoro-6-[3-(trifluoromethyl)pyrrolidin-1-yl]pyridin-2-yl}methyl)amino]-3-methylbutan-1-ol]
3050	OC[C@H](NCc1ccnc(-c2ccc(C(F)(F)F)cc2)n1)C1CC1 [Example 145, (2R)-2-cyclopropyl-2-[({2-[4-(trifluoromethyl)phenyl]pyrimidin-4-yl}methyl)amino]ethanol]
2190	CC(C)[C@H](CO)NCc1nc(-c2ccnc(C(F)(F)F)c2)ccc1F [Example 31, (2R)-2-({[5-fluoro-2′-(trifluoromethyl)-2,4′-bipyridin-6-yl]methyl}amino)-3-methylbutan-1-ol]
2760	CC(C)[C@@H](NCc1nc(-c2ccc(C(F)(F)F)cc2)ccc1F)C(C)(C)O [Example 105, (3R)-3-[({3-fluoro-6-[4-(trifluoromethyl)phenyl]pyridin-2-yl}methyl)amino]-2,4-dimethylpentan-2-ol]

IC50 [nM]	Molecule
3300	CC(C)[C@H](CO)NCc1nc(-c2cc(Cl)cc(Cl)c2)ccc1F [Example 21, (2R)-2-({[6-(3,5-dichlorophenyl)-3-fluoropyridin-2-yl]methyl}amino)-3-methylbutan-1-ol]
3100	CCC[C@H](CO)NCc1nc(-c2ccc(C(F)(F)F)nc2)ccc1F [Example 87, (2R)-2-({[5-fluoro-6′-(trifluoromethyl)-2,3′-bipyridin-6-yl]methyl}amino)pentan-1-ol]
290	OCC1(NCc2nc(-c3ccc(C(F)(F)F)cc3)ccc2F)CCCC1 [Example 80, {1-[({3-fluoro-6-[4-(trifluoromethyl)phenyl]pyridin-2-yl}methyl)amino]cyclopentyl}methanol]
370	CC(C)[C@H](CO)NCc1nc(-c2cc(C(F)(F)F)ccc2F)ccc1F [Example 282, (2R)-2-[({3-fluoro-6-[2-fluoro-5-(trifluoromethyl)phenyl]pyridin-2-yl}methyl)amino]-3-methylbutan-1-ol]
2690	CC(C)[C@H](CO)NCc1nc(-c2cncc(Cl)c2)ccc1F [Example 278, (2R)-2-{[(5′-chloro-5-fluoro-2,3′-bipyridin-6-yl)methyl]amino}-3-methylbutan-1-ol]
370	CC(C)[C@H](CO)NCc1nc(C#Cc2ccc(F)c(F)c2)ccc1F [Example 239, (2R)-2-[({6-[(3,4-difluorophenyl)ethynyl]-3-fluoropyridin-2-yl}methyl)amino]-3-methylbutan-1-ol]
1080	CC(C)[C@H](CO)NCc1nc(-c2cccc(S(=O)(=O)N3CCCC3)c2)ccc1F [Example 60, (2R)-2-[({3-fluoro-6-[3-(pyrrolidin-1-ylsulfonyl)phenyl]pyridin-2-yl}methyl)amino]-3-methylbutan-1-ol]
3680	COCC(CO)NCc1nc(-c2ccc(C(F)(F)F)cc2)ccc1F (stereo not drawn) [Example 74, 2-[({3-fluoro-6-[4-(trifluoromethyl)phenyl]pyridin-2-yl}methyl)amino]-3-methoxypropan-1-ol]
> 20000	OC1(CNCc2ccnc(-c3ccc(C(F)(F)F)cc3)n2)CCCC1 [Example 177, 1-{[({2-[4-(trifluoromethyl)phenyl]pyrimidin-4-yl}methyl)amino]methyl}cyclopentanol]
> 20000	OCC1(NCc2ccnc(-c3ccc(C(F)(F)F)nc3)n2)CCCCC1 [Example 185, {1-[({2-[6-(trifluoromethyl)pyridin-3-yl]pyrimidin-4-yl}methyl)amino]cyclohexyl}methanol]
1640	C[C@H](CO)NCc1nc(-c2ccc(C(F)(F)F)cc2)ccc1F [Example 82, (2R)-2-[({3-fluoro-6-[4-(trifluoromethyl)phenyl]pyridin-2-yl}methyl)amino]propan-1-ol]
6180	C[C@@H](O)[C@@H](CO)NCc1nc(-c2ccc(C(F)(F)F)nc2)ccc1F [Example 121, (2R,3R)-2-({[5-fluoro-6′-(trifluoromethyl)-2,3′-bipyridin-6-yl]methyl}amino)butane-1,3-diol]
> 20000	OCC1(CNCc2ccnc(-c3ccc(C(F)(F)F)cc3)n2)CCOCC1 [Example 161]
1440	CC(c1ccccc1)c1ccc(F)c(CN[C@@H](CO)C(C)C)n1 (stereo partly drawn) [Example 127, (2R)-2-({[3-fluoro-6-(1-phenylethyl)pyridin-2-yl]methyl}amino)-3-methylbutan-1-ol]
1870	CC(O)C(C)NCc1ccnc(-c2ccc(C(F)(F)F)cc2)n1 (stereo not drawn) [Example 148, 3-[({2-[4-(trifluoromethyl)phenyl]pyrimidin-4-yl}methyl)amino]butan-2-ol]
> 20000	CC(C)(O)CNCc1ccnc(-c2ccc(C(F)(F)F)cc2)n1 [Example 175, 2-methyl-1-[({2-[4-(trifluoromethyl)phenyl]pyrimidin-4-yl}methyl)amino]propan-2-ol]
4000	CC(C)[C@H](CO)NCc1nc(-c2cccc(C(=O)N3CCSCC3)c2)ccc1F [Example 62, {3-[5-fluoro-6-({[(2R)-1-hydroxy-3-methylbutan-2-yl]amino}methyl)pyridin-2-yl]phenyl}(thiomorpholin-4-yl)methanone]
1120	CC(C)[C@H](CO)NCc1nc(-c2ccccc2F)ccc1F [Example 13, (2R)-2-({[3-fluoro-6-(2-fluorophenyl)pyridin-2-yl]methyl}amino)-3-methylbutan-1-ol]
140	CC(C)[C@H](CO)NCc1nc(N2CCc3cccc(F)c3C2)ccc1F [Example 99, (2R)-2-({[3-fluoro-6-(8-fluoro-3,4-dihydroisoquinolin-2(1H)-yl)pyridin-2-yl]methyl}amino)-3-methylbutan-1-ol]

Molecule	IC50 [nM]
{1-[({2-[5-(trifluoromethyl)pyridin-2-yl]pyrimidin-4-yl}methyl)amino]cyclohexyl}methanol [Example 193]	> 20000
